These are literature values, as cited in patent US20090306049A1, “Treatment of Barrett's Esophagus” (HUBRECHT LABORATORIUM, priority 2005, published 2009).

The data set relates to Barrett's carcinoma.

For the compound `O=P1(NCCCl)OCCCN1CCCl` (stereo not shown) [ifosfamide], where the note is “25 patients treated”, the “overall efficacy of treatment” value was “essentially ineffective”, the “patients cured of metastatic adenocarcinoma in Barrett's oesophagus” value is given as “One” and the “patients with a partial response” value was “one”. For the same compound, the “toxicity associated with treatment” value (generally considered) was “severe toxicity”.
